For 51 compounds, IC50 results are on record in US8759366B2, “Aminopyrimidines as SYK inhibitors” (Merck Sharp & Dohme Corp., priority 2009, dated 2014).

For one experiment, the target named is rhSYK (Homo sapiens (Human), UniProt P43405). Conditions: read-out: rhSYK activity.
In the case of `OC1(c2ncc(-c3cccc(Nc4nccc(C(F)(F)F)n4)c3)s2)COC1` [Example 4B-11], the IC50 was < 100 nM.

As to `Cc1cc(Nc2nccc(C(F)(F)F)n2)cc(-c2cnc(C3(O)C[C@H]4CC(CC(=O)O)C[C@H]4C3)s2)c1` (stereo partly drawn) [Example 4B-27], the IC50 was < 100 nM.

`CC(C)(C)OC(=O)N1CCC(C(C)(O)c2ncc(-c3cccc(Nc4nccc(C(F)(F)F)n4)c3)s2)CC1` (stereo not drawn) [Example 15(1), tert-butyl 4-{1-hydroxy-1-[5-(3-{[4-(trifluoromethyl)pyrimidin-2-yl]amino}phenyl)-1,3-thiazol-2-yl]ethyl}piperidine-1-carboxylate]: the IC50 fell in the range of 100 to 1000 nM.

In the case of `CC(=O)N1CCC(O)(c2ncc(-c3cccc(Nc4nccc(C(F)(F)F)n4)c3)s2)CC1` [4D-1], the IC50 was < 100 nM.

`Cc1cc(Nc2nccc(C(F)(F)F)n2)cc(-c2cnc(C3(O)CCCC(C)(CC(=O)O)C3)s2)c1` (stereo not drawn) [Example 4C-22]: the IC50 is < 100 nM.

Consider `Cc1cc(Nc2nccc(C)n2)cc(-c2cnc([C@]3(O)[C@H]4CC5C[C@H]3C[C@](C(=O)O)(C5)C4)s2)c1` [Example 4B-30], for which the IC50 is < 100 nM.

On to `Cc1cc(Nc2nccc(C(F)(F)F)n2)cc(-c2cnc(C3(C#N)CCC4(CC3)OCCO4)s2)c1` [8-[5-(3-methyl-5-{[4-(trifluoromethyl)pyrimidin-2-yl]amino}phenyl)-1,3-thiazol-2-yl]-1,4-dioxaspiro[4.5]decane-8-carbonitrile], for which the IC50 was < 100 nM.

For `OC1(c2ncc(-c3cccc(Nc4nccc(C(F)(F)F)n4)c3)s2)CCN(c2ccc(F)cc2)C1` (stereo not drawn) [4D-2], the IC50 lay in the range of 1000 to 10000 nM.

On to `Cc1cc(Nc2nccc(C(F)(F)F)n2)cc(-c2cnc(C3(O)CC4(C(=O)O)CCC3(C)C4(C)C)s2)c1` (stereo not drawn) [Example 4B-49], for which the IC50 is < 100 nM.

Regarding `Cc1cc(Nc2nccc(C(F)(F)F)n2)cc(-c2cnc(C3(NS(C)(=O)=O)COC3)s2)c1` [Example 60, N-{3-[5-(3-methyl-5-{[4-(trifluoromethyl)pyrimidin-2-yl]amino}phenyl)-1,3-thiazol-2-yl]-oxetan-3-yl}methanesulfonamide], the IC50 is < 100 nM.

With `Cc1cc(Nc2nccc(C(F)(F)F)n2)cc(-c2cnc(C(NC(=O)C3(C(N)=O)CC3)(C3CC3)C3CC3)s2)c1` [Example 67, N-{dicyclopropyl[5-(3-methyl-5-{[4-(trifluoromethyl)pyrimidin-2-yl]amino}phenyl)-1,3-thiazol-2-yl]methyl}cyclopropane-1,1-dicarboxamide], the IC50 is < 100 nM.

In the case of `CCc1cc(Nc2nccc(C(F)(F)F)n2)cc(-c2cnc(C(C)(C)O)s2)c1` [Example 30, 2-[5-(3-ethyl-5-{[4-(trifluoromethyl)pyrimidin-2-yl]amino}phenyl)-1,3-thiazol-2-yl]propan-2-ol], the IC50 was < 100 nM.

On to `OC1(c2ncc(-c3cc(NCC(F)(F)F)cc(Nc4nccc(C(F)(F)F)n4)c3)s2)CCC1` [Example 27, 1-[5-(3-[(2,2,2-trifluoroethyl)amino]-5-{[4-(trifluoromethyl)pyrimidin-2-yl]amino}phenyl)-1,3-thiazol-2-yl]cyclobutanol], for which the IC50 was < 100 nM.

Take `CCOC(=O)N1CCC(O)(c2ncc(-c3cccc(Nc4nccc(C(F)(F)F)n4)c3)s2)CC1` [4D-4]: the IC50 was < 100 nM.

For the compound `Cc1cc(Nc2nccc(C(F)(F)F)n2)cc(-c2cnc(C3(O)CCN(C(=O)OC(C)(C)C)CC3)s2)c1` [Example 45, tert-butyl 4-hydroxy-4-[5-(3-methyl-5-{[4-(trifluoromethyl)pyrimidin-2-yl]amino}phenyl)-1,3-thiazol-2-yl]piperidine-1-carboxylate], the IC50 is < 100 nM.

With `CC(=O)NC12CC3CC(C1)C(O)(c1ncc(-c4cc(C)cc(Nc5nccc(C(F)(F)F)n5)c4)s1)C(C3)C2` (stereo not drawn) [Example 4B-51], the IC50 was < 100 nM.

For `Cc1cc(Nc2nccc(C)n2)cc(-c2cnc([C@]3(O)[C@@H]4CC5C[C@@H]3C[C@](C(=O)O)(C5)C4)s2)c1` [Example 4B-31], the IC50 is < 100 nM.

As to `Cc1cc(Nc2nccc(C)n2)cc(-c2cnc(C3(O)CC4(C(=O)O)CCC3(C)C4(C)C)s2)c1` (stereo not drawn) [Example 4B-32], the IC50 is < 100 nM.

For the compound `Cc1cc(Nc2nccc(C(F)(F)F)n2)cc(-c2cnc(C3(O)CCN(C4CC4)CC3)s2)c1` [4D-8], the IC50 was < 100 nM.

Take `Cc1cc(Nc2nccc(C(F)(F)F)n2)cc(-c2cnc(C3(O)CCC(C4(N)CC4)CC3)s2)c1` (stereo not drawn) [Example 4C-20]: the IC50 is < 100 nM.

As for `OC1(c2ncc(-c3cccc(Nc4nccc(C(F)(F)F)n4)c3)s2)CC2CCC1N2` (stereo not drawn) [Example 4B-10], the IC50 was in the range of 100 to 1000 nM.

As for `Cc1cc(Nc2nccc(C(F)(F)F)n2)cc(-c2cnc(C3(O)CCC(N)(C(=O)O)CC3)s2)c1` (stereo not drawn) [Example 41, 1-amino-4-hydroxy-4-[5-(3-methyl-5-{[4-(trifluoromethyl)pyrimidin-2-yl]amino}phenyl)-1,3-thiazol-2-yl]cyclohexanecarboxylic acid], the IC50 was < 100 nM.

Consider `Cc1cc(Nc2nccc(C(F)(F)F)n2)cc(-c2cnc(C3(O)C=CCCCC3)s2)c1` (stereo not drawn) [Example 4B-55], for which the IC50 is < 100 nM.

Turning to `Cc1cc(Nc2nccc(C(F)(F)F)n2)cc(-c2cnc(C3(O)CCC4(C)C(=O)CCC4(O)C3)s2)c1` (stereo not drawn) [Example 4B-26], the IC50 is < 100 nM.

As for `Cc1cc(Nc2nccc(C)n2)cc(-c2cnc(C3(O)CCNC(=O)CC3)s2)c1` (stereo not drawn) [4D-7], the IC50 was < 100 nM.

Turning to `Cc1cc(Nc2nccc(C)n2)cc(-c2cnc(C3(O)CCC(C)(CC(=O)O)CC3)s2)c1` (single isomer, unassigned) [Example 4C-11], the IC50 is < 100 nM.

Consider `Cc1cc(Nc2nccc(C(F)(F)F)n2)cc(-c2cnc(C3CCC(C(=O)O)CC3)s2)c1` (stereo not drawn) [Example 36, 4-[5-(3-methyl-5-{[4-(trifluoromethyl)pyrimidin-2-yl]amino}phenyl)-1,3-thiazol-2-yl]cyclohexanecarboxylic acid], for which the IC50 was < 100 nM.

As for `Cc1cc(Nc2nccc(C(F)(F)F)n2)cc(-c2cnc(C3(O)CCC(N(C)C)CC3)s2)c1` (stereo not drawn) [Example 4C-33], the IC50 is < 100 nM.

Take `FC(F)(F)c1ccnc(Nc2cc(Br)cc(-c3cncs3)c2)n1` [Intermediate 11, N-[3-bromo-5-(1,3-thiazol-5-yl)phenyl]-4-(trifluoromethyl)pyrimidin-2-amine]: the IC50 fell in the range of 100 to 1000 nM.

The next experiment concerns the target recombinant human SYK (GST-hSYK fusion protein) (Homo sapiens (Human), UniProt P43405). Conditions: read-out: rhSYK Activity; Table 15.
Description: Homogeneous Time-Resolved Fluorescence (HTRF) Assay for the Recombinant Human SYK Enzyme:
Take `CC(O)(c1ncc(-c2cccc(Nc3nccc(C(F)(F)F)n3)c2)s1)C1CC1` (stereo not drawn) [Example 15-3]: the IC50 is < 100 nM.

The experiment is the same for the next values; noted with them: read-out: rhSYK Activity; Table 21.
As for `FC(F)(F)c1ccnc(Nc2cccc(-c3cnc(CCN4CCCC4=S)s3)c2)n1` [Example 21-16], the IC50 is < 100 nM.

The experiment is the same for the next values; noted with them: read-out: rhSYK Activity; Table 26.
Consider `CCOC(=O)C1CCC(F)(c2ncc(-c3cccc(Nc4nccc(C(F)(F)F)n4)c3)s2)CC1` (stereo not drawn) [Example 26-4], for which the IC50 lay within 100 to 1000 nM.

Still in this experiment, the particulars now being: read-out: rhSYK Activity; Table 33B.
As for `COC1CC(O)(c2ncc(-c3cc(C)cc(Nc4nccc(C(F)(F)F)n4)c3)s2)CCC1C(=O)O` (stereo not drawn) [Example 33B-13], the IC50 is < 100 nM.

Consider `Cc1cc(Nc2nccc(C(F)(F)F)n2)cc(-c2cnc(C3(O)CCC(C(=O)O)C(C(C)C)C3)s2)c1` (single isomer, unassigned) [Example 33B-22], for which the IC50 was < 100 nM.

Take `Cc1cc(Nc2nccc(C(F)(F)F)n2)cc(-c2cnc(C3(O)CC(C(=O)O)C(C)(C)C3)s2)c1` (single isomer, unassigned) [Example 33B-6]: the IC50 was < 100 nM.

Consider `Cc1cc(Nc2nccc(C)n2)cc(-c2cnc(C3(O)CCC(C(=O)O)C(c4ccc(F)cc4)C3)s2)c1` (stereo not drawn) [Example 33B-31], for which the IC50 was < 100 nM.

Still in this experiment, the particulars now being: read-out: rhSYK Activity; Table 33D.
As for `Cc1cc(Nc2nccc(C(F)(F)F)n2)cc(-c2cnc(C(C)(O)c3ccc(NC(=O)CCC(=O)O)cc3)s2)c1` (stereo not drawn) [Example 33D-14], the IC50 is < 100 nM.

Still in this experiment, the particulars now being: read-out: rhSYK Activity; Table 113A.
For `CCOC(=O)C1CCC(O)(c2ncc(-c3cc(C)cc(Nc4nccc(OCCCOC)n4)c3)s2)CC1C` (stereo not drawn) [Example 113A-47], the IC50 lay within 100 to 1000 nM.

Staying with this experiment, now noted: read-out: rhSYK Activity; Table 113C.
With `Cc1cc(Nc2nccc(C(F)F)n2)cc(-c2cnc(C3(O)CCNC(=O)CC3)s2)c1` (stereo not drawn) [113C-7], the IC50 was < 100 nM.

As to `Cc1cc(Nc2nccc(C3CC3)n2)cc(-c2cnc(C3(O)CCCNCC3)s2)c1` (stereo not drawn) [113C-13], the IC50 is < 100 nM.

Still in this experiment, the particulars now being: read-out: rhSYK Activity; Table 119; HTRF assay, IC50 class symbols.
With `Cc1cc(Nc2nccc(C(F)(F)F)n2)cc(-c2cnc(C3(O)CCC(C(=O)NCc4cccc5c4CNC5=O)CC3)s2)c1` (stereo not drawn) [Example 119-98], the IC50 is < 100 nM.

With `Cc1cc(Nc2nccc(C(F)(F)F)n2)cc(-c2cnc(C3(O)CCC(C(=O)NCCN4CCOCC4)CC3)s2)c1` (stereo not drawn) [Example 119-80], the IC50 is < 100 nM.

Turning to `Cc1cc(Nc2nccc(C(F)(F)F)n2)cc(-c2cnc(C3(O)CCC(C(=O)NCc4ccc(CO)cc4)CC3)s2)c1` (stereo not drawn) [Example 119-85], the IC50 is < 100 nM.

The same experiment, now with this note: read-out: rhSYK Activity; recombinant human SYK, HTRF assay; class symbols.
Turning to `Cc1cc(Nc2nccc(C(F)(F)F)n2)cc(-c2cnc(C3(O)CCN(C(=O)CC(=O)O)CC3)s2)c1` [Example 54A-26], the IC50 is < 100 nM.

For `Cc1cc(Nc2nccc(C(F)(F)F)n2)cc(-c2cnc(C3(O)CCCN(C(=O)CCn4cncn4)CC3)s2)c1` (racemic) [Example 54D-89], the IC50 is < 100 nM.

Consider `Cc1cc(Nc2ncc(Cl)c(C)n2)cc(-c2cnc(C3(O)CCN(C(N)=O)C3)s2)c1` (stereo not drawn) [Example 54B-17], for which the IC50 is < 100 nM.

For `CCCCNC(=O)N1CCC(O)(c2ncc(-c3cc(C)cc(Nc4nccc(C(F)(F)F)n4)c3)s2)CC1` [Example 54A-61], the IC50 is < 100 nM.

Consider `Cc1cc(Nc2nccc(C(F)(F)F)n2)cc(-c2cnc(C3(O)CCN(C(=O)c4ocnc4C)C3)s2)c1` (stereo not drawn) [Example 54B-31], for which the IC50 is < 100 nM.

As for `COC(=O)c1cccc(N2CCC(O)(c3ncc(-c4cc(C)cc(Nc5nccc(C(F)(F)F)n5)c4)s3)C2)c1` (stereo not drawn) [Example 54B-35], the IC50 was < 100 nM.

Still in this experiment, the particulars now being: read-out: rhSYK activity.
Consider `Cc1cc(Nc2nccc(OCCC3CCCN3C)n2)cc(-c2cnc(C3(O)CCC3)s2)c1` (stereo not drawn) [Example 108A-17], for which the IC50 was < 100 nM.

For `Cc1cc(Nc2nccc(C(F)(F)F)n2)cc(-c2cnc(C3(O)CCC(NC(=O)C(CO)(CO)CO)CC3)s2)c1` (stereo not drawn) [Example 54E-34], the IC50 was < 100 nM.
